# Data from a melting point compilation (Tetko et al.; mined from patent text by program, amines drawn as free bases though some values may be those of a salt).
row,Structure (SMILES),melting point [°C]
1,O=C(C=Cc1cccnc1)NCCCCC1CCN(C2c3ccccc3CSc3ccccc32)CC1 (configuration not stated),89 to 91
2,COc1ccc(C=C(Cl)Cl)c(C(=O)O)c1,164 to 166
3,O=C1C=CC(OC2CCCCC2)N1 (configuration not stated),65 to 66
4,Cc1cc(SC2CC(=O)N(c3ccccc3)C2=O)cc(C(C)(C)C)c1O (configuration not stated),158 to 160
5,O=Cc1ccnc2c(NC(=O)c3c(Cl)cccc3Cl)cccc12,239
6,O=C1NC(=O)C2(N1)C(=O)N(Cc1cc(Cl)c(Br)c(Cl)c1)c1ccccc12 (configuration not stated),290 to 292
7,C[C@@H](Nc1ncnc2cc(OC3CCC3)c([N+](=O)[O-])cc12)c1ccccc1,108 to 110
8,COC(=O)COc1cccc(NC(=O)NCC(=O)N(CC(=O)OC(C)(C)C)c2ccccc2C(=O)c2ccccc2)c1,74 to 77
9,COc1ccc(N2CCN(c3c(C)c(C)c4c(c3C)C(O)(c3ccc(C)cc3)C(C)(C)O4)CC2)cc1 (configuration not stated),145 to 147
10,O=C(COc1cc(-c2ccccc2)nc2ccccc12)N1CCCC1,135
11,Nc1ccc(OCCCCN2C(=O)c3ccccc3C2=O)cc1,119 to 121
12,O=C(O)Cc1ccc(OCCNC(=O)C2Cc3ccccc3N2S(=O)(=O)c2ccc(-c3ccc(F)cc3Cl)cc2)cc1 (configuration not stated),90
13,COc1ccc(C(=O)c2cccc3c2ccn3S(=O)(=O)c2ccc(C)cc2)cc1,135
14,Cc1cc(C)c(Nc2nc(C)ccc2S(=O)(=O)c2ccc(OCc3cccc(F)c3F)cc2)c(C)c1,136 to 138
15,CCOP(=O)(Cc1ccc(C(=O)Nc2ccccc2C(=O)O)cc1)OCC,171 to 172
16,COc1ccc2cc(C=NCc3ccccc3)ccc2c1,115 to 117
17,C=CCn1c(-c2cccnc2)nn(CCCCN2CCN(c3ccccc3OC)CC2)c1=O,71 to 75
18,CCOC(=O)c1c(C)cc2nc(COC(=O)NCCO)n(-c3ccccc3S(=O)(=O)NC)c(=O)c2c1C,122 to 125
19,BrCc1ccccc1CCc1ccc(Br)cc1,63 to 75
20,Cn1c(-c2ccccc2)c(C2CCC(C(=O)O)(C(=O)O)CC2)c2ccccc21,230
21,O[C@H](CCc1cccnc1)COc1ccc(Br)cc1,65 to 66
22,CCOP(=O)(Cc1ccc(C(=S)N2CCCc3ccccc32)cc1)OCC,96 to 97
23,CN(C)CCN1C(=O)c2ccc3[nH]c4cc(O)c(O)cc4c3c2C1=O,> 260
24,Cc1oc(-c2ccco2)nc1COc1ccc(COc2ncccc2C#N)cc1,135 to 136
25,CCCN(CCC)Cc1nnc(-c2ncn3c2[C@@H]2CCN2C(=O)c2c(Cl)cccc2-3)o1,134 to 136

row,Structure (SMILES),melting point [°C]
1,Cc1nc(N)c2nc(C)n(CCCNC(=O)N3CCOCC3)c2c1C,129 to 130
2,CCC(=O)c1cc(C2(c3cccc(Br)c3)N=C(N)N(C)C2=O)cn1CC (configuration not stated),100 to 102
3,Oc1c(CN2CCOCC2)ncc2c1COC2c1ccccc1 (configuration not stated),172
4,c1nc(CSCCc2ccc3c(c2)OCO3)c[nH]1,81 to 83
5,CSc1ccc(COC(=O)N2CCN(CC3(C)Cn4cc([N+](=O)[O-])nc4O3)CC2)cc1 (configuration not stated),118 to 120
6,O=C(O)C(Cc1ccccc1)C(=O)NC(CS)Cc1ccccc1 (configuration not stated),65 to 70
7,CC(=O)N(C)CCc1ccc(CCC(=O)O)cc1,133 to 134
8,C=CCOc1ccc(C(O)CN2CCN(C(c3ccccc3)c3ccccc3)CC2)cc1 (configuration not stated),100
9,O=C(Nc1nc(-c2ccccn2)nc2ccccc12)C(F)(F)F,245 to 248
10,C#CCN(CC#C)S(=O)(=O)c1cccc2c(N(C)C)cccc12,67 to 69
11,Cn1cc(C2=C(c3cccc(NCCO)c3)C(=O)NC2=O)c2ccccc21,170 to 171
12,CCn1ncc2c(NCc3cccc(OC)c3)c3ccccc3nc21,260 to 263
13,CCCn1nc(-c2ccc(OC(=O)CC)cc2)c2cccc(Cl)c21,66 to 67
14,CCCCCCCCCCCCCCCCCCCCCC(=O)Oc1cc(C(C)(C)C)c(O)c(C(C)(C)C)c1,59 to 61
15,COC(=O)c1cc(N2C(=O)C(=O)N(C(C)C)C2=O)c(F)cc1Cl,106 to 108
16,c1ccc(C2Nc3ccccc3N3CCc4cccc2c43)cc1 (configuration not stated),161 to 164
17,CC(=O)NC1Cc2ccc(O)cc2C1 (configuration not stated),123 to 126
18,CCSc1cc(C)nc(SCC)c1NC(=O)CCCCSc1nc2c(C)c(Cl)cc(C(C)C)c2o1,141 to 142
19,CCC(=CC(CSc1nc2ccccc2s1)=NO)C(C)[N+](=O)[O-] (configuration not stated),102 to 103
20,Fc1ccccc1C1=CCc2nnc(Br)n2-c2ccc(Cl)cc21,222
21,Cc1c(NC(=O)OCc2ccccc2)cccc1C(C[N+](=O)[O-])c1c[nH]c2ccc(N3CCOCC3)cc12 (configuration not stated),140
22,Cc1ccc(C(=O)NC(NC(=S)Nc2cccnc2)C(C)(C)C)cc1 (configuration not stated),168 to 169
23,O=C(c1ccccc1)n1c2cc(O)c(O)cc2c2cc(O)c(O)cc21,287 to 292
24,COCCNC(=O)c1cc(F)cc(-c2cccc3cc(Cc4cccc(C(F)(F)F)c4)sc23)c1,103 to 104
25,Cc1ccccc1C(=O)Nc1ccc(C(=O)N2Cc3ccccc3Cc3ccccc32)cc1,198 to 203

row,Structure (SMILES),melting point [°C]
1,CC(C)Cn1c(=O)c2nc(-c3ccc(/C=C/C(=O)O)cc3)[nH]c2n(CC(C)C)c1=O,> 300
2,COc1ccc(C=Cc2c(Cl)cncc2Cl)c2c1OCC2C (configuration not stated),117 to 118
3,NNc1ncc(-c2ccc(F)cc2)nn1,231 to 235
4,CCCCCCCCC(SCCCCCC)C(=O)Nc1c(SC)nc(C)nc1SC (configuration not stated),95 to 97.5
5,CCCCc1nc2cnc3ccc(O)cc3c2n1C,219 to 220
6,Cn1c(OCc2ccccc2)noc1=O,80 to 83
7,CN(C)C(=O)CCCCC(=O)O,80
8,CC(C)n1c(=S)nc(-c2ccccc2)c2cc3c(cc21)OCO3,202 to 205
9,CCCCCCCCOc1ccc(Cl)c2c(=O)c3ccccc3sc12,86 to 87.5
10,CC1(C)[C@H](c2nc(-c3ccc(F)cc3)no2)CC[C@]1(C)NCC(=O)N1C[C@@H](F)C[C@H]1C#N,160 to 163
11,COc1cc2c(c(OC)c1/C=C/c1ccc(C(N)=O)cc1)C(C)(C)CCC2(C)C,190 to 194
12,Cc1ccc(NC(=O)c2cc(Cl)ccc2NCC2CCN(C(C)C)CC2)nc1,147 to 148
13,CCc1cc2[nH]c(=O)c(=O)[nH]c2c(N(CC(=O)OC)S(C)(=O)=O)c1Cl,296 to 299
14,COc1cc(COc2cccc(O)c2C)cc(OC)c1,63 to 69
15,CCOC(OCC)c1cc(NC(c2ccccc2)(c2ccccc2)c2ccccc2)c(F)c(C(C)(C)C)n1,168 to 170
16,O=C1COCCN1c1ccc(N2C[C@@H](CCl)OC2=O)cc1,143 to 146
17,c1ccc(C2NCCc3c2[nH]c2ccccc32)cc1 (configuration not stated),175 to 177
18,CC(=O)Nc1ccc2c(c1)Cc1c(-c3ccccc3)n[nH]c1-2,275 to 276
19,O=C(O)c1nc2n(n1)-c1cc(Cl)ccc1N(c1ccc(Cl)cc1Cl)C2,218 to 222
20,Nc1cccc(C(CC2=NCCN2)c2ccccn2)c1 (configuration not stated),154 to 155
21,O=C1CCc2cccc3c2N1C(=O)CC3,136 to 140
22,COC(=O)c1ccc(CNC(=O)[C@@H]2Cc3ccccc3N2S(=O)(=O)c2ccc(I)cc2)cc1,80 to 85
23,CCCc1nc2c(N)nc3ccccc3c2n1CCCCN(O)C(C)=O,191 to 193
24,CC(=O)N1CCC(C(=O)c2ccc(N3CCCCC3)cc2)CC1,122 to 125
25,Cc1nc(-c2ccc(C(=O)N[C@H]3CC[C@H](CCN4CCC(c5cccc6c5CCO6)CC4)CC3)cc2)no1,256

row,Structure (SMILES),melting point [°C]
1,Clc1ccc(CSC(CCc2ccccc2)Cn2ccnc2)cc1Cl (configuration not stated),144 to 146
2,CCC(CC)N(O)C(=O)NCCCCCCCCNC(=O)N(O)C(CC)CC,89 to 90
3,O=C(NC(=O)c1cccc(C(F)(F)F)c1)NC1CN2CCC1CC2 (configuration not stated),197 to 200
4,COc1cc2c(cc1OC)C(O)C(N1CCC(N3c4ccccc4NC3C)CC1)C2 (configuration not stated),255 to 256
5,O=C(O)CCc1oc(-n2cnc3ccccc32)nc1-c1ccc(C(F)(F)F)cc1,224 to 226
6,CON=C(C)c1cc2c(Cl)cc(F)c(-n3c(=O)cc(C(F)(F)F)n(C)c3=O)c2o1,176 to 178
7,CC12CCC(C(=O)O)=CC1=CCC1C2CCC2(C)C(C(=O)C3CCCCC3)CCC12 (configuration not stated),217 to 220
8,Cc1cc(-c2cc(C(F)(F)F)n3ncc(-c4nc(-c5cccc(S(N)(=O)=O)c5)no4)c3n2)ccc1C(F)(F)F,270
9,CC12C=CC(=O)C(N)=C1CCC1C2CCC2(C)C(=O)CCC12 (configuration not stated),162 to 169
10,Cc1cc(-c2cc(C(F)(F)F)n3cnc(-c4ccncc4)c3n2)ccc1C(F)(F)F,225
11,O=Cc1c2n(c3ccccc13)CCNCC2,167 to 168
12,O=[N+]([O-])c1cc(O)c(F)cc1Cl,85 to 86
13,CCOCN(C(=O)N(COCc1ccccc1)c1nc(OCC(F)(F)F)cc(OCC(F)(F)F)n1)c1ccc(C(F)(F)F)cc1,62 to 65
14,COC1(OC)CN(c2c(F)cc3c(=O)c(C(=O)O)cn(C4CC4)c3c2F)CC1C (configuration not stated),214 to 216
15,CC(C)CCOC(=O)COc1cc(F)ccc1C(=O)NCc1cccc([N+](=O)[O-])c1,65 to 68
16,O=[N+]([O-])c1ccc(CNc2ccccn2)cc1,131 to 132
17,CCNC(=O)C(C)(C)N=NC(C)(C)C(=O)NCC,98
18,COc1cccc([C@H]2O[C@H](CC(=O)Nc3nc(C(=O)O)cs3)C(=O)N(CC(C)(C)CO)c3ccc(Cl)cc32)c1OC,277 to 278
19,CCN(CC)C(=O)c1ccc(C(F)(F)F)cc1-c1ccc(OC)c(OC)c1,108 to 110
20,O=C1N(c2ccccc2)N=C(Nc2ccccc2)C1(Br)Br,190
21,CNC(=O)c1ccc2c(c1)c(-c1cc3cccnc3[nH]1)cn2C,186
22,N=C1SCCN1c1ccc(C(F)(F)F)cc1[N+](=O)[O-],153
